# In patent publication US20080009511A1, “Cancer treatment with compounds inhibiting PKC alpha” (priority 2004, published 2008):
# Columns and labels:
# human cancer cells = assay: Cell viability assay, summary over the panel of cancer cells; type: cell-based; conditions: 10 micromoles; day 6; cell lines not named as going to apoptosis
# Description: (§1) The following cancer cells were maintained in Dulbecco's modified Eagle medium (DMEM) supplemented with 10 percent bovine calf serum. Cells were seeded for 24 hours. Then they were treated with PKC inhibitors or left untreated. The cells were then collected periodically and evaluated using trypan blue dye exclusion to assess viability using the method described by C Y Chen, et al., in J. Biol. Chem. 273:16700-16709. Cultures containing about 4×10^4 cells were treated with or without 10 micromoles of Gö6850 and the viable cells were counted at day 6. […] Cultures containing about 4×10^4 cells were treated with or without 10 micromoles of NGIC-I and the viable cells were counted at day 6. […] Cultures containing about 4×10^4 cells were treated with or without 10 micromoles of Ro31-7549 and the viable cells were counted at day 6. […] Cultures containing about 4×10^4 cells were treated with or without 10 micromoles of Ro31-8220 and the viable cells were counted at day 6. […] Cultures containing about 4×10^4 cells were treated with or without 10 micromoles of Ro31-8425 and the viable cells were counted at day 6. […] Cultures containing about 4×10^4 cells were treated with or without 10 micromoles of Ro31-0432 and the viable cells were counted at day 6.
# [1] = test system: A431 human epidermoid carcinoma cells; assay: Cell viability assay (trypan blue dye exclusion), viable cells counted at day 6; type: cell-based; conditions: 10 micromoles; for Treated (cell number × 10^5): about 4×10^4 cells seeded, untreated 5.4 ± 0.4; for % inhibiton: growth vs untreated
# Description: as §1, with “273:16700-16709. Cultures containing about 4×10^4 cells were treated with 5 micromoles of Gö7874 (except that PC3 prostate cancer cells were treated with 10 micromoles) and the viable cells were counted at day 6. […]” for “273:16700-16709.”
# [2] = test system: PANC-1 human pancreatic carcinoma cells; assay: as above; type: cell-based; conditions: 10 micromoles; for Treated (cell number × 10^5): about 4×10^4 cells seeded, untreated 2.1 ± 0.3; for % inhibiton: growth vs untreated
# Description: as §1, with “273:16700-16709. Cultures containing about 4×10^4 cells were treated with 5 micromoles of Gö7874 (except that PC3 prostate cancer cells were treated with 10 micromoles) and the viable cells were counted at day 6. […]” for “273:16700-16709.”
# [3] = test system: AGS human gastric cancer cells; assay: as above; type: cell-based; conditions: 10 micromoles; for Treated (cell number × 10^5): about 4×10^4 cells seeded, untreated 2.4 ± 0.3; for % inhibiton: growth vs untreated
# Description: as §1, with “273:16700-16709. Cultures containing about 4×10^4 cells were treated with 5 micromoles of Gö7874 (except that PC3 prostate cancer cells were treated with 10 micromoles) and the viable cells were counted at day 6. […]” for “273:16700-16709.”
# [4] = test system: Jurkat cells (a human acute T-cell leukemia cell line); assay: as above; type: cell-based; conditions: 10 micromoles; for Treated (cell number × 10^5): about 4×10^4 cells seeded, untreated 8.8 ± 0.4; for % inhibiton: growth vs untreated
# Description: as §1, with “273:16700-16709. Cultures containing about 4×10^4 cells were treated with 5 micromoles of Gö7874 (except that PC3 prostate cancer cells were treated with 10 micromoles) and the viable cells were counted at day 6. […]” for “273:16700-16709.”
# [5] = test system: H460 human lung cancer cells; assay: as above; type: cell-based; conditions: 10 micromoles; for Treated (cell number × 10^5): about 4×10^4 cells seeded, untreated 2.4 ± 0.2; for % inhibiton: growth vs untreated
# Description: as §1, with “273:16700-16709. Cultures containing about 4×10^4 cells were treated with 5 micromoles of Gö7874 (except that PC3 prostate cancer cells were treated with 10 micromoles) and the viable cells were counted at day 6. […]” for “273:16700-16709.”
# [6] = test system: MDA-MB-468 human breast cancer cells; assay: as above; type: cell-based; conditions: 10 micromoles; for Treated (cell number × 10^5): about 4×10^4 cells seeded, untreated 6.1 ± 0.4; for % inhibiton: growth vs untreated
# Description: as §1, with “273:16700-16709. Cultures containing about 4×10^4 cells were treated with 5 micromoles of Gö7874 (except that PC3 prostate cancer cells were treated with 10 micromoles) and the viable cells were counted at day 6. […]” for “273:16700-16709.”
# [7] = test system: HepG2 human liver cancer cells; assay: as above; type: cell-based; conditions: 10 micromoles; for Treated (cell number × 10^5): about 4×10^4 cells seeded, untreated 4.2 ± 0.4; for % inhibiton: growth vs untreated
# Description: as §1, with “273:16700-16709. Cultures containing about 4×10^4 cells were treated with 5 micromoles of Gö7874 (except that PC3 prostate cancer cells were treated with 10 micromoles) and the viable cells were counted at day 6. […]” for “273:16700-16709.”
# [8] = test system: Hela human cervical cancer cells; assay: as above; type: cell-based; conditions: 10 micromoles; for Treated (cell number × 10^5): about 4×10^4 cells seeded, untreated 3.4 ± 0.4; for % inhibiton: growth vs untreated
# Description: as §1, with “273:16700-16709. Cultures containing about 4×10^4 cells were treated with 5 micromoles of Gö7874 (except that PC3 prostate cancer cells were treated with 10 micromoles) and the viable cells were counted at day 6. […]” for “273:16700-16709.”
# [9] = test system: PC3 human prostate cancer cells; assay: as above; type: cell-based; conditions: 10 micromoles; for Treated (cell number × 10^5): about 4×10^4 cells seeded, untreated 7.1 ± 0.3; for % inhibiton: growth vs untreated
# Description: as §1, with “273:16700-16709. Cultures containing about 4×10^4 cells were treated with 5 micromoles of Gö7874 (except that PC3 prostate cancer cells were treated with 10 micromoles) and the viable cells were counted at day 6. […]” for “273:16700-16709.”
# [10] = test system: NBT-II human bladder cancer cells; assay: as above; type: cell-based; conditions: 10 micromoles; for Treated (cell number × 10^5): about 4×10^4 cells seeded, untreated 2.9 ± 0.4; for % inhibiton: growth vs untreated
# Description: as §1, with “273:16700-16709. Cultures containing about 4×10^4 cells were treated with 5 micromoles of Gö7874 (except that PC3 prostate cancer cells were treated with 10 micromoles) and the viable cells were counted at day 6. […]” for “273:16700-16709.”
# U251 human glioma cells = assay: as above; type: cell-based; conditions: 10 micromoles; for Treated (cell number × 10^5): about 4×10^4 cells seeded, untreated 9.6 ± 0.5; for % inhibiton: growth vs untreated
# Description: as §1, with “273:16700-16709. Cultures containing about 4×10^4 cells were treated with 5 micromoles of Gö7874 (except that PC3 prostate cancer cells were treated with 10 micromoles) and the viable cells were counted at day 6. […]” for “273:16700-16709.”
# [11] = test system: HT29 human colon cancer cells; assay: as above; type: cell-based; conditions: 10 micromoles; for Treated (cell number × 10^5): about 4×10^4 cells seeded, untreated 3.8 ± 0.4; for % inhibiton: growth vs untreated
# Description: as §1, with “273:16700-16709. Cultures containing about 4×10^4 cells were treated with 5 micromoles of Gö7874 (except that PC3 prostate cancer cells were treated with 10 micromoles) and the viable cells were counted at day 6. […]” for “273:16700-16709.”
# KB oral cancer cells = assay: as above; type: cell-based, human; conditions: 10 micromoles; for Treated (cell number × 10^5): about 4×10^4 cells seeded, untreated 3.8 ± 0.4; for % inhibiton: growth vs untreated
# Description: as §1, with “273:16700-16709. Cultures containing about 4×10^4 cells were treated with 5 micromoles of Gö7874 (except that PC3 prostate cancer cells were treated with 10 micromoles) and the viable cells were counted at day 6. […]” for “273:16700-16709.”
Structure (SMILES),"inhibition of growth in contrast to untreated cells, range over the other treated cancer cells (human cancer cells)",Treated (cell number × 10^5) [1],% inhibiton [1],Treated (cell number × 10^5) [2],% inhibiton [2],Treated (cell number × 10^5) [3],% inhibiton [3],Treated (cell number × 10^5) [4],% inhibiton [4],Treated (cell number × 10^5) [5],% inhibiton [5],% inhibiton [6],Treated (cell number × 10^5) [7],% inhibiton [7],Treated (cell number × 10^5) [8],% inhibiton [8],Treated (cell number × 10^5) [9],% inhibiton [9],Treated (cell number × 10^5) [10],% inhibiton [10],other results
"CN(C)CCCn1cc(C2=C(c3c[nH]c4ccccc34)C(=O)NC2=O)c2ccccc21 [Gö6850, 2-[1-(3-Dimethylaminopropyl)-1H-indol-3-yl]-3-(1H-indol-3-yl)-maleimide]",25-60%,4.1 × 10^5,24%,1.4 × 10^5,30%,1.5 × 10^5,34%,4.1 × 10^5,53%,1.6 × 10^5,31%,25%,2.4 × 10^5,41%,0.3 × 10^5,"* (indicates the inhibitor causes significant cell death, and cell number is less than originally seeded cell number.)",2.8 × 10^5,60%,1.3 × 10^5,57%,Treated (cell number × 10^5) [6]: 4.6 ± 0.2 × 10^5; cell numbers of treated cells [8]: significantly reduced cell numbers; Treated (cell number × 10^5) (U251 human glioma cells): 7.2 × 10^5; % inhibiton (U251 human glioma cells): 23%; Treated (cell number × 10^5) [11]: 2.4 × 10^5; % inhibiton [11]: 22%; Treated (cell number × 10^5) (KB oral cancer cells): 1.7 × 10^5; % inhibiton (KB oral cancer cells): 55%
"Cn1cc(C2=C(c3cn(CCCN)c4ccccc34)C(=O)NC2=O)c2ccccc21 [Ro31-7549, 2-[1-3(Aminopropyl)indol-3-yl]-3(1-methyl-1H-indol-3-yl)maleimide, Acetate]",43-92%,2.8 × 10^5,48%,1.2 × 10^5,43%,1.7 × 10^5,30%,0.7 × 10^5,92%,0.5 × 10^5,81%,"* (indicates the inhibitor causes significant cell death, and cell number is less than originally seeded cell number.)",0 × 10^5,"* (indicates the inhibitor causes significant cell death, and cell number is less than originally seeded cell number.)",6 × 10^5,"* (indicates the inhibitor causes significant cell death, and cell number is less than originally seeded cell number.)",2.7 × 10^5,62%,0.6 ± 0.1 × 10^5,80%,"cells that went to apoptosis upon treatment [6]: significant number; Treated (cell number × 10^5) [6]: 0.2 ± 0.05 × 10^5; cells that went to apoptosis upon treatment [7]: all; cells that went to apoptosis upon treatment [8]: significant number; Treated (cell number × 10^5) (U251 human glioma cells): 1.9 × 10^5; % inhibiton (U251 human glioma cells): 80%; Treated (cell number × 10^5) [11]: 1.7 × 10^5; % inhibiton [11]: 63%; cells that went to apoptosis upon treatment (KB oral cancer cells): all; Treated (cell number × 10^5) (KB oral cancer cells): 0 × 10^5; % inhibiton (KB oral cancer cells): * (indicates the inhibitor causes significant cell death, and cell number is less than originally seeded cell number.)"
CN(C)CC1CCn2c(c(C3=C(c4cn(C)c5ccccc45)C(=O)NC3=O)c3ccccc32)C1.Cl (stereo not shown) [Ro31-0432],10-60%,4.2 × 10^5,21%,1.2 ± 0.1 × 10^5,31%,1.7 × 10^5,30%,1.4 × 10^5,81%,1.3x ± × 10^5,48%,30%,2.4 × 10^5,43%,1.3 × 10^5,60%,6.0 × 10^5,15%,2.3 × 10^5,19%,Treated (cell number × 10^5) (U251 human glioma cells): 9.2 × 10^5; % inhibiton (U251 human glioma cells): 10%; Treated (cell number × 10^5) [11]: 3.0 × 10^5; % inhibiton [11]: 19%; Treated (cell number × 10^5) (KB oral cancer cells): 2.1 × 10^5; % inhibiton (KB oral cancer cells): 44%
